Tests used:
Experiment in all cases: relative viability (nuclei count vs DMSO), 5 days (fraction); higher = more cells survive
HCC-44 = tested on: HCC-44
Method in brief: (§1)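 Relative viability divides the nuclei count in treated wells by that in vehicle wells. Lung cancer cell lines were seeded in 1536-well plates, dosed by pin tool the next day, and fixed and stained after 5 days in one step with final 0.05% Triton X-100, 1% formaldehyde and 1 ug/ml Hoechst. Dosing was a single drug or a fixed anchor-drug dose plus five library-drug doses (not always all listed) in √10 steps, and values are medians of duplicate plates imaged at 4×.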

NCI-H1623 = tested on: NCI-H1623
Method in brief: as §1

NCI-H322M = tested on: NCI-H322M
Method in brief: as §1

NCI-H1563 = tested on: NCI-H1563
Method in brief: as §1

NCI-H2087 = tested on: NCI-H2087
Method in brief: as §1

HCC-78 = tested on: HCC-78
Method in brief: as §1

NCI-H1299 = tested on: NCI-H1299
Method in brief: as §1

IA-LM = tested on: IA-LM
Method in brief: as §1

EBC-1 = tested on: EBC-1
Method in brief: as §1

NCI-H1648 = tested on: NCI-H1648
Method in brief: as §1

Calu-6 = tested on: Calu-6
Method in brief: as §1

A549 = tested on: A549
Method in brief: as §1

NCI-H1703 = tested on: NCI-H1703
Method in brief: as §1

## CN1CCN(CCOc2cc(OC3CCOCC3)c3c(Nc4c(Cl)ccc5c4OCO5)ncnc3c2)CC1 [Saracatinib] + CCNC(=O)c1noc(-c2cc(C(C)C)c(O)cc2O)c1-c1ccc(CN2CCOCC2)cc1 [Luminespib] (partner 0.01 µM)
HCC-44; first compound 0.02 µM
  relative viability: 0.972
HCC-44; first compound 0.2 µM
  relative viability: 0.921
HCC-44; first compound 0.6325 µM
  relative viability: 1.32
HCC-44; first compound 2 µM
  relative viability: 0.952
NCI-H1623; first compound 0.02 µM
  relative viability: 0.527
NCI-H1623; first compound 0.2 µM
  relative viability: 0.383
NCI-H1623; first compound 0.6325 µM
  relative viability: 0.522
NCI-H1623; first compound 2 µM
  relative viability: 0.433
NCI-H322M; first compound 0.02 µM
  relative viability: 0.867
NCI-H322M; first compound 0.2 µM
  relative viability: 0.711
NCI-H322M; first compound 0.6325 µM
  relative viability: 0.682
NCI-H322M; first compound 2 µM
  relative viability: 0.378
NCI-H1563; first compound 0.02 µM
  relative viability: 0.481
NCI-H1563; first compound 0.2 µM
  relative viability: 0.488
NCI-H1563; first compound 0.6325 µM
  relative viability: 0.537
NCI-H1563; first compound 2 µM
  relative viability: 0.525
NCI-H2087; first compound 0.02 µM
  relative viability: 0.143
NCI-H2087; first compound 0.2 µM
  relative viability: 0.18
NCI-H2087; first compound 0.6325 µM
  relative viability: 0.166
NCI-H2087; first compound 2 µM
  relative viability: 0.253

## CN1CCN(CCOc2cc(OC3CCOCC3)c3c(Nc4c(Cl)ccc5c4OCO5)ncnc3c2)CC1 [Saracatinib] + Cc1nc(Nc2ncc(C(=O)Nc3c(C)cccc3Cl)s2)cc(N2CCN(CCO)CC2)n1 [Dasatinib] (partner 0.075 µM)
NCI-H1623; first compound 0.02 µM
  relative viability: 0.562
NCI-H1623; first compound 0.2 µM
  relative viability: 0.416
NCI-H1623; first compound 0.6325 µM
  relative viability: 0.468
NCI-H1623; first compound 2 µM
  relative viability: 0.406
NCI-H322M; first compound 0.02 µM
  relative viability: 0.245
NCI-H322M; first compound 0.2 µM
  relative viability: 0.196
NCI-H322M; first compound 0.6325 µM
  relative viability: 0.211
NCI-H322M; first compound 2 µM
  relative viability: 0.215
NCI-H1563; first compound 0.02 µM
  relative viability: 0.463
NCI-H1563; first compound 0.2 µM
  relative viability: 0.39
NCI-H1563; first compound 0.6325 µM
  relative viability: 0.437
NCI-H1563; first compound 2 µM
  relative viability: 0.397
HCC-78; first compound 0.02 µM
  relative viability: 0.477
HCC-78; first compound 0.6325 µM
  relative viability: 0.421
HCC-78; first compound 2 µM
  relative viability: 0.352
NCI-H2087; first compound 0.02 µM
  relative viability: 0.807
NCI-H2087; first compound 0.2 µM
  relative viability: 0.69
NCI-H2087; first compound 0.6325 µM
  relative viability: 0.928
NCI-H2087; first compound 2 µM
  relative viability: 0.656

## CN1CCN(CCOc2cc(OC3CCOCC3)c3c(Nc4c(Cl)ccc5c4OCO5)ncnc3c2)CC1 [Saracatinib] + O=C(c1cc(Cc2n[nH]c(=O)c3ccccc23)ccc1F)N1CCN(C(=O)C2CC2)CC1 [Olaparib] (partner 8 µM)
NCI-H1299; first compound 0.02 µM
  relative viability: 0.923
NCI-H1299; first compound 0.2 µM
  relative viability: 0.952
NCI-H1299; first compound 0.6325 µM
  relative viability: 1.12
NCI-H1299; first compound 2 µM
  relative viability: 0.92
IA-LM; first compound 0.02 µM
  relative viability: 0.856
IA-LM; first compound 0.2 µM
  relative viability: 0.884
IA-LM; first compound 0.6325 µM
  relative viability: 1.06
IA-LM; first compound 2 µM
  relative viability: 0.76
HCC-44; first compound 0.02 µM
  relative viability: 0.979
HCC-44; first compound 0.2 µM
  relative viability: 0.863
HCC-44; first compound 0.6325 µM
  relative viability: 0.97
HCC-44; first compound 2 µM
  relative viability: 0.976
EBC-1; first compound 0.02 µM
  relative viability: 0.701
EBC-1; first compound 0.2 µM
  relative viability: 0.709
EBC-1; first compound 0.6325 µM
  relative viability: 0.729
EBC-1; first compound 2 µM
  relative viability: 0.734
NCI-H322M; first compound 0.02 µM
  relative viability: 0.769
NCI-H322M; first compound 0.2 µM
  relative viability: 0.492
NCI-H322M; first compound 0.6325 µM
  relative viability: 0.636
NCI-H322M; first compound 2 µM
  relative viability: 0.402
HCC-78; first compound 0.02 µM
  relative viability: 0.891
HCC-78; first compound 0.6325 µM
  relative viability: 0.99
HCC-78; first compound 2 µM
  relative viability: 0.673
NCI-H1648; first compound 0.02 µM
  relative viability: 0.882
NCI-H1648; first compound 0.2 µM
  relative viability: 0.678
NCI-H1648; first compound 0.6325 µM
  relative viability: 1.75
NCI-H1648; first compound 2 µM
  relative viability: 0.417
Calu-6; first compound 0.02 µM
  relative viability: 0.53
Calu-6; first compound 0.2 µM
  relative viability: 0.51
Calu-6; first compound 0.6325 µM
  relative viability: 0.529
Calu-6; first compound 2 µM
  relative viability: 0.449
A549; first compound 0.02 µM
  relative viability: 0.338
A549; first compound 0.2 µM
  relative viability: 0.174
A549; first compound 0.6325 µM
  relative viability: 0.341
A549; first compound 2 µM
  relative viability: 0.305
NCI-H2087; first compound 0.02 µM
  relative viability: 0.485
NCI-H2087; first compound 0.2 µM
  relative viability: 0.449
NCI-H2087; first compound 0.6325 µM
  relative viability: 0.552
NCI-H2087; first compound 2 µM
  relative viability: 0.515
NCI-H1703; first compound 0.02 µM
  relative viability: 0.425
NCI-H1703; first compound 0.2 µM
  relative viability: 0.393
NCI-H1703; first compound 0.6325 µM
  relative viability: 0.172
NCI-H1703; first compound 2 µM
  relative viability: 0.158
